Results taken from patent US5185436A, “Esters of normal butyric acid and their use as pharmaceuticals” (priority 1990, dated 1993).
Read-outs that look alike come from different tables or passages of the source.

Experiments:
[1] = Acute toxicity, SWISS mouse (median lethal dose); settings: in vivo, read-out: Median lethan dose
Method: (§1) The toxicities which are acute with the SWISS mouse and chronic with the albino rat are determined according to the usual standardized protocols.

TG 180 strain [2] = assay: In vivo antitumoral test with the mouse, first experiment; set-up: species or system SWISS mouse; settings: for number of survivors (tumor +) / number of survivors (tumor -) / number of animals with tumors: 15 mice per batch; for number of survivors (tumor +) / number of survivors (tumor -): compounds I to V alternately with CP and interferon; for number of animals with tumors: compounds I to V alternately with CP and interferon (0.5 ml of 8 mmolar solution), three weeks; for antitumoral therapeutic efficiency: with respect to reference batches No. 1, 2, 3 and 4, in words
Method: (3) In vivo antitumoral tests with the mouse.
The studies on the antitumoral properties have been carried out with the mouse according the CHANY and CERRUTI protocol (Int. J. Cancer, 1982, 30, 489) on the hereabove compounds I to V.
In order to obtain a tumor or tumors with mice, one uses the TG 180 strain (injection via the i.p. route of 10^6 cells for a male mouse of 25 g and of 0.1 ml of a solution of Corynbacterium Parvum Merieux (CP)).
This experiment bears on 135 SWISS mice devided into 9 batches of 15 mice each. After injection on day D0 of the TG 180 and CP cells, one proceeds in the following manner:
The reference batch No. 1 is treated every day with an injection of placebo.
The reference batch No. 2 is treated every day with an injection of CP (0.1 ml).
The reference batch No. 3 is treated every day with an injection of interferon EAT-113, 0.5 ml.
The reference batch No. 4 is treated every day alternately with CP and with interferon EAT-113, with the same doses as hereabove.
The experimental batches are treated, alternately on day D+1 with the compound according to the invention (0.5 ml of an 8 mmolar solution of a compound I to V), on day D+2 with interferon EAT-113, on day D+3 with CP, and this for three weeks.
The number of survivors is noted, as well as the presence or not of a tumor (tumor+ or tumor-) in the survivors five weeks after day D0.

TG 180 strain [3] = assay: as above; set-up: species or system SWISS mouse; settings: 15 mice per batch; compounds I to V alternately with CP and interferon
[4] = Solubilizing of the products for the in vivo antitumoral test; type: physicochemical; settings: explanation for the small number of survivors; in words
rat [5] = assay: Lethality in the rat; type: in vivo; settings: administration of 1.12 g/kg to the rat
Method: as §1

Solubility in water = type: physicochemical
[6] = test system: neoplasic mammary cells (strain NCF 410); assay: In vitro action on neoplasic mammary cells; type: cell-based; settings: association with interferon EAT-113; in words
[7] = test system: Herpes hominis type II virus; settings: in vivo, with interferon EAT-113; in words
[8] = test system: cells infected by the murine AIDS TR-26 virus; assay: In vitro action on cells infected by murine AIDS virus; type: cell-based; settings: in words
TG 180 strain [9] = assay: In vivo antitumoral test with the mouse, second experiment (dose effect)
rat [10] = settings: Merck Index 10th edition; cited from earlier work
[11] = rabbit, i.v. 0.12 g/kg, t=60 min; cited from earlier work
TG 180 strain [12] = settings: mouse; cited from earlier work
man = settings: massive dose; Brazier et al; in words; cited from earlier work
fibroblasts = settings: in words; cited from earlier work
herpes virus = settings: in words; cited from earlier work

| SMILES | LD50 ([1]; ip) | LD50 ([1]; oral route) | number of survivors (tumor +) (TG 180 strain [2]) | number of survivors (tumor -) (TG 180 strain [2]) | number of animals with tumors (TG 180 strain [2]) | number of survivors after 6 weeks (TG 180 strain [3]) | other results |
| --- | --- | --- | --- | --- | --- | --- | --- |
| CCCC(=O)OC[C@H]1OC(OC(=O)CCC)[C@H](OC(=O)CCC)[C@@H](OC(=O)CCC)[C@@H]1OC(=O)CCC (stereo partly drawn) [VII, penta- O-n-butanoyl-1,2,3,4,6 D-glucopyranose] | > 8000 mg/kg | > 8000 mg/kg | – | – | – | – | – |
| CCCC(=O)OC[C@H]1OC(OC(=O)CCC)[C@H](OC(=O)CCC)[C@@H](OC(=O)CCC)[C@H]1OC(=O)CCC (stereo partly drawn) [VI, penta O-n-butanoyl-1,2,3,4,6 D-galactopyranose] | > 8000 mg/kg | > 8000 mg/kg | – | – | – | – | – |
| CCCCCCCCCCCCCCCC(=O)OCC(COC(=O)CCC)OC(=O)CCC (centres unmarked) [XI, di-O-butanoyl-2,3 O-palmitoyl-1-glyceryl] | > 8000 mg/kg | > 8000 mg/kg | – | – | – | – | – |
| CCCC(=O)OCC1COC(C)(C)O1 (centres unmarked) [VIII, O-n-butanoyl-1-isopropylidene-2,3-glyceryl] | 5400 ± 300 mg/kg | > 8000 mg/kg | – | – | – | – | – |
| CCCCCCCCCCCCCCCC(=O)OCC(COC(=O)CCC)OC(=O)CCCCCCCCCCCCCCC (centres unmarked) [X, O-butanoyl-3-di-O-palmitoyl-1,2 glyceryl] | > 2000 mg/kg | > 6000 mg/kg | – | – | – | – | – |
| CCCC(=O)OC[C@@H](O)[C@H]1O[C@@H]2OC(C)(C)O[C@@H]2[C@H]1O [III, O-butanoyl-6-O-isopropylidene-1,2α-D-glucofuranose] | 3000 ± 350 mg/kg | > 8000 mg/kg | 3 | 8 | 7 | 11 | antitumoral therapeutic efficiency (TG 180 strain [2]): very good antitumoral therapeutic efficiency |
| CCCC(=O)OC[C@H]1O[C@@H]2OC(C)(C)O[C@@H]2[C@H]2OC(C)(C)O[C@H]21 [V, O-n-butanoyl-6 di-O-isopropylidene-1,2:3,4α-D-galactopyranose] | 2500 ± 400 mg/kg | > 8000 mg/kg | 0 | 3 | 12 | 3 | solubilizing [4]: difficulties for solubilizing these products |
| CCCC(=O)O[C@@H]1[C@H]2OC(C)(C)O[C@H]2O[C@@H]1[C@H]1COC(C)(C)O1 [Compound I, O-butanoyl-3-di-O-isopropylidene 1,2: 5,6 α-D-glucofuranose] | 1750 ± 390 mg/kg | > 8000 mg/kg | 3 | 7 | 9 | 10 | lethality (rat [5]): does not cause any lethality; solubility in water (Solubility in water; in words): slightly soluble in water; antitumoral therapeutic efficiency (TG 180 strain [2]): very good antitumoral therapeutic efficiency |
| CCCC(=O)OC[C@@H](OC(=O)CCC)[C@H]1O[C@@H]2OC(C)(C)O[C@@H]2[C@H]1OC(=O)CCC [IV, tri-O-butanoyl 3,5,6-O-isopropylidene-1,2 α-D-glucofuranose] | > 8000 mg/kg | > 8000 mg/kg | 0 | 3 | 13 | 3 | solubilizing [4]: difficulties for solubilizing these products |
| CCCC(=O)O[C@@H]1[C@H]2OC(C)(C)O[C@H]2O[C@@H]1[C@H](O)CO [Compound II] | 4200 ± 400 mg/kg | > 8000 mg/kg | 0 | 9 | 10 | 9 | in vitro action compared with arginine butyrate and interferon EAT-113 [6]: stronger than the association of arginine butyrate and interferon EAT-113; solubility (Solubility in water; water, room temperature): > 100 mg/mL; potentialization of the action of interferon EAT-113 [7]: potentialization of the action of interferon EAT-113 on the Herpes hominis type II virus; action in vitro compared with arginine butyrate [8]: stronger action in vitro on the cells infected by the murine AIDS TR-26 virus than the arginine butyrate; antitumoral therapeutic efficiency (TG 180 strain [2]): very good antitumoral therapeutic efficiency; survival after 100 days (TG 180 strain [9]; administered alternately with CP and interferon, whatever the concentration between 0.25 and 50 mmol/l): 30 mice amongst 45; number of surviving mice after 100 days (TG 180 strain [9]; alternately with CP, interferon omitted, average, 0.5 to 50 millimoles/l): 20 mice amongst 45; therapeutic results of the association with CP alone compared with interferon, CP plus arginine butyrate (TG 180 strain [9]; compound II plus CP, no interferon, in words): as good as the association of interferon with CP plus arginine butyrate; dose sufficient for obtaining the maximum therapeutic effect (TG 180 strain [9]; mouse): ≤ 0.44 mg of potential n-butyric acid per kilogramme of mouse |
| CC(C)=O [acetone] | – | – | – | – | – | – | median lethal dose p.o. (rat [10]): 10.7 mL/kg |
| CCCC(=O)O [arginine n-butyrate] | – | – | – | – | – | – | n-butyric acid present in serum [11]: 0 mmol/L; optimal dose advocated (TG 180 strain [12]): 14 mg of butyric acid; surviving mice after 100 days (TG 180 strain [9]; association of CP plus arginine butyrate without interferon): 8 mice amongst 45; therapeutic efficiency (TG 180 strain [9]; association of CP plus arginine butyrate without interferon, in words): low therapeutic efficiency; side effects in man (man): side effects in man, of the hyperammoniemy type with a reduction of the insulin secretion and disturbances of the urea cycle and of glucose metabolism |
| CCCC(=O)[O-].[Na+] [sodium n-butyrate] | – | – | – | – | – | – | inhibiting actions on the growth of fibroblasts (fibroblasts): interesting inhibiting actions on the growth of fibroblasts; antiviral actions (herpes virus): antiviral actions of sodium butyrate have also been characterized for the herpes virus |
| CCCC(=O)OCC(O)CO (centres unmarked) [IX, O-n-butanoyl-1, propane diol-2,3] | 2250 ± 230 mg/kg | > 8000 mg/kg | – | – | – | – | – |
